From patent publication US20260200890A1, “ADAR1 INHIBITORS AND METHODS OF USING THE SAME” (AVAMMUNE THERAPEUTICS INC., priority 2022, published 2026)

Target: T1, ADAR1 (Homo sapiens, UniProt P55265)
T1 construct: endogenous in cells; host or cells: p110 KO A549 dual cells
T1 sequence (P55265 1-1226): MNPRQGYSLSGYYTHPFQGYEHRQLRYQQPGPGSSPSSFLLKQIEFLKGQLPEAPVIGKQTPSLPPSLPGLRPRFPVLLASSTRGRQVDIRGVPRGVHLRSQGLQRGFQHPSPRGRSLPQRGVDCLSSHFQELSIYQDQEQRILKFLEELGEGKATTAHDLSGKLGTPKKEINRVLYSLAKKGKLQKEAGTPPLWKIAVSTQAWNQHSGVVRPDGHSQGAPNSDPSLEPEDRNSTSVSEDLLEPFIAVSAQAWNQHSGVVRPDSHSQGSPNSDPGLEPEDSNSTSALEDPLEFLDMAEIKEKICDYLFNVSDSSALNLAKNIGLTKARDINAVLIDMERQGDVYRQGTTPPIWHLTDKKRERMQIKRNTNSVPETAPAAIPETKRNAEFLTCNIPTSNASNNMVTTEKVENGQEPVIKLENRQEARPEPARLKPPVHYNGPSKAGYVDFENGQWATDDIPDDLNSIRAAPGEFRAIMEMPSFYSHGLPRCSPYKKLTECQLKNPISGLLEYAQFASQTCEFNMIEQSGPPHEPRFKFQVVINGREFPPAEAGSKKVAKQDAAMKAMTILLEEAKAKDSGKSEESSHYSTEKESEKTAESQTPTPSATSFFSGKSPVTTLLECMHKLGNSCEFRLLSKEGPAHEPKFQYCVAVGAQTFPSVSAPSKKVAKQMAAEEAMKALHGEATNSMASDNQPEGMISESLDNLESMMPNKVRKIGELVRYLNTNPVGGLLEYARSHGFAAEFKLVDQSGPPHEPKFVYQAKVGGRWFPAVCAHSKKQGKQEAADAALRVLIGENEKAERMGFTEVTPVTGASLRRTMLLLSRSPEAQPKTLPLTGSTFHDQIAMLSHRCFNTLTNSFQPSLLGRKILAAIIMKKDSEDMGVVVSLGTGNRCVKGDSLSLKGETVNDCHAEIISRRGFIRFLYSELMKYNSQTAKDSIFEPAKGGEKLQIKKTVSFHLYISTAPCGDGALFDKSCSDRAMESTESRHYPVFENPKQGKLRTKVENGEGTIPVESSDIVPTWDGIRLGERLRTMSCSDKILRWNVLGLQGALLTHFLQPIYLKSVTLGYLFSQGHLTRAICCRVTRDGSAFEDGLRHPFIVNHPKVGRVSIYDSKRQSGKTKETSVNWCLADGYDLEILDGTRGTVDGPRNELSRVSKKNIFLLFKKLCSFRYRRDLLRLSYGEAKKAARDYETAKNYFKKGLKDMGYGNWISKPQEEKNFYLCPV
Test: ADAR1 Inhibition Assay (IFN fold-induction, Quanti-Luc luminescence, p110 KO A549 dual cells)
Format: cell-based
Settings: IFN fold-induction vs DMSO, 24 and 48 h
Procedure: An ADAR1 Inhibition Assay was used to determine the biological activity (EC50) of compounds disclosed herein. 100 μL of p110 KO A549 dual cell suspension in supplemented DMEM (20,000 cells per well) was added into a flat bottom 96 well plate. Next day, post media change, 180 μL of supplemented DMEM was added. 20 μL of test compound or positive control was added to the respective wells (Final concentration of DMSO is 1%). The plate was incubated for 24 and 48 hours at 37° C. in a 5% CO2 incubator. After 24 and 48 h, 20 μL of cell suspension was taken in black well plates and 50 μL of Quanti-Luc was added to each well and luminescence was measured using a microplate reader (Spectra Max). IFN fold-induction was plotted considering DMSO as control using the relative luminescence unit (RLU) values. (Fold induction: Sample RLU/Average DMSO RLU).

EC50 | Structure (SMILES)
> 100 µM | CCOC(=O)c1cc(NC(=O)COC(=O)c2cccc(NS(C)(=O)=O)c2)ncc1-c1ccccc1 [Compound 249]
> 100 µM | CCOC(=O)c1cc(-c2ccccc2)sc1NC(=O)c1coc(-c2cccc(NS(C)(=O)=O)c2)n1 [Compound 244]
> 100 µM | CCOC(=O)c1cc(-c2ccccc2)sc1NC(=O)c1cc(-c2cccc(NS(C)(=O)=O)c2)ncn1 [Compound 261]
> 100 µM | CS(=O)(=O)Nc1cccc(C(=O)OCC(=O)Nc2ncc(-c3ccccc3)cc2CO)c1 [Compound 259]
> 100 µM | CCOC(=O)c1cc(-c2ccccc2)sc1NC(=O)CNC(=O)Cc1ccc(OS(C)(=O)=O)c(NS(C)(=O)=O)c1 [Compound 368]
≤ 25 µM | CCOC(=O)c1cc(-c2ccccc2)sc1NC(=O)c1nnc(-c2cccc(NS(C)(=O)=O)c2)o1 [Compound 219]
> 100 µM | CCOC(=O)c1cc(-c2ccccc2)sc1NC(=O)CNC(=O)Cc1cccc(S(N)(=O)=O)c1 [Compound 371]
> 100 µM | CCOC(=O)c1cc(-c2ccc(O)cc2)sc1NC(=O)COC(=O)c1cccc(NS(C)(=O)=O)c1 [Compound 218]
> 100 µM | CCOC(=O)c1cc(-c2ccccc2)sc1NC(=O)COC(=O)c1cccc(NS(=O)(=O)c2c(C)noc2C)c1 [Compound 322]
50 to 100 µM | CCOC(=O)c1cc(-c2ccccc2)sc1S(=O)(=O)N1CCN(C(=O)c2cccc(NS(C)(=O)=O)c2)CC1 [Compound 309]
> 100 µM | CCOC(=O)c1cc(-c2cccc(C#N)c2)sc1NC(=O)COC(=O)c1cccc(NS(C)(=O)=O)c1 [Compound 212]
> 100 µM | CCOC(=O)c1cc(-c2ccccc2)sc1NC(=O)COc1cc(C(F)(F)F)nc(NS(C)(=O)=O)n1 [Compound 300]
50 to 100 µM | CCOC(=O)c1cc(-c2ccccc2)sc1NC(=O)CC(=O)Nc1cccc(NS(C)(=O)=O)c1 [Compound 312]
> 100 µM | CCOC(=O)c1cc(-c2ccccc2)sc1NC(=O)CNC(=O)Cc1cccc(S(C)(=N)=O)c1 (stereo not shown) [Compound 338]
> 100 µM | CCOC(=O)c1cc(C2CCNCC2)sc1NC(=O)COC(=O)c1cccc(NS(C)(=O)=O)c1 [Compound 295]
> 100 µM | CCOC(=O)c1cc(-c2ccccc2)sc1NC(=O)COC(=O)c1cccc(S(=O)(=O)NC(=O)CC)c1 [Compound 193]
> 100 µM | CCOC(=O)c1nc(-c2ccccc2)sc1NC(=O)C1CCN(C(=O)c2cccc(NS(C)(=O)=O)c2)C1 (stereo not shown) [Compound 206]
50 to 100 µM | CCOC(=O)c1cc(-c2ccc3c(cnn3C)c2)sc1NC(=O)COC(=O)c1cccc(NS(C)(=O)=O)c1 [Compound 305]
> 100 µM | CCOC(=O)c1cc(-c2ccc3c(cnn3C)c2)sc1NC(=O)CNC(=O)Cc1cccc(NS(C)(=O)=O)c1 [Compound 335]
> 100 µM | CCOC(=O)c1cc(-c2ccccc2)sc1NC(=O)Cn1cnc2cnc(NS(C)(=O)=O)nc21 [Compound 225]
> 100 µM | CCOC(=O)c1cc(-c2ccccc2)sc1NC(=O)COC(=O)N1CCN(S(C)(=O)=O)CC1 [Compound 178]
> 100 µM | CCOC(=O)c1cc(-c2ccccc2)ncc1NC(=O)COC(=O)c1cccc(P(=O)(O)O)c1 [Compound 382]
> 100 µM | CCOC(=O)c1cc(-c2ccccc2)sc1NC(=O)c1nnc(-c2cccc(NS(C)(=O)=O)c2)s1 [Compound 222]
> 100 µM | COC(=O)c1nc(-c2ccccc2)cnc1NC(=O)COC(=O)c1cccc(NS(C)(=O)=O)c1 [Compound 258]
> 100 µM | CCOC(=O)c1cc(-c2ccccc2)sc1NC(=O)Cn1nc(-c2cccc(NS(C)(=O)=O)c2)oc1=O [Compound 288]

Second part, the compound before the results:

Structure (SMILES) | EC50
CCOC(=O)c1cc(-c2ccccc2)sc1NC(=O)COC(=O)c1cc(NS(C)(=O)=O)ccc1C [Compound 125] | > 100 µM
CCOC(=O)c1cc(-c2ccccc2)sc1NC(=O)CNC(=O)c1ccc(S(N)(=O)=O)cc1 [Compound 24] | > 100 µM
CCOC(=O)c1cc(-c2ccccc2)sc1NC(=O)/C=C/c1cccc(NS(C)(=O)=O)c1 [Compound 149] | > 100 µM
CCOC(=O)c1cc(-c2ccccc2)sc1NC(=O)COC(=O)c1ccccc1NS(C)(=O)=O [Compound 110] | > 100 µM
Cc1cccc(Cl)c1NC(=O)c1csc(NC(=O)c2cccc(S(N)(=O)=O)c2)n1 [Compound 35] | > 100 µM
CCOC(=O)c1cc(-c2ccccc2)sc1NC(=O)COC(=O)c1cccc(OC(F)(F)F)c1 [Compound 63] | > 100 µM
CCOC(=O)c1cc(-c2ccccc2)sc1NC(=O)COC(=O)c1cc(S(N)(=O)=O)ccc1C [Compound 76] | > 100 µM
CCOC(=O)c1cc(-c2ccccc2)sc1NC(=O)COC(=O)Cc1cccc(NS(C)(=O)=O)c1 [Compound 126] | > 100 µM
COC(=O)c1nc(NC(=O)COC(=O)c2cccc(S(N)(=O)=O)c2)sc1-c1ccccc1 [Compound 57] | > 100 µM
CS(=O)(=O)Nc1cccc(C(=O)N2CCC(C(=O)Nc3nnc(-c4ccccc4)s3)C2)c1 (stereo not shown) [Compound 173] | > 100 µM
CCOC(=O)c1cc(-c2ccccc2)sc1NC(=O)Oc1ccc(NS(C)(=O)=O)cc1 [Compound 267] | > 100 µM
CCOC(=O)c1c(NC(=O)COC(=O)c2cccc(NS(C)(=O)=O)c2)sc2c1CCN(C)C2 [Compound 104] | > 100 µM
Cc1nc(-c2ccccc2)sc1C(=O)NCC(=O)Nc1cccc(S(N)(=O)=O)c1 [Compound 48] | > 100 µM
CCOC(=O)c1cc(-c2ccccc2)sc1NC(=O)COC(=O)c1ccc(NS(C)(=O)=O)cc1 [Compound 101] | > 100 µM
CS(=O)(=O)Oc1cccc(C(=O)OCC(=O)Nc2sc(-c3ccccc3)cc2C(N)=O)c1 [Compound 84] | > 100 µM
CCOC(=O)c1cc(-c2ccccc2)sc1NC(=O)CN [Compound 12] | > 100 µM
CCOC(=O)c1cc(-c2ccccc2)sc1NC(=O)CCc1cccc(NS(C)(=O)=O)c1 [Compound 165] | > 100 µM
CCOC(=O)c1cc(-c2ccc(P(=O)(OCC)OCC)cc2)sc1NC(=O)COC(=O)c1cccc(P(=O)(OCC)OCC)c1 [Compound 390] | > 100 µM
CCOC(=O)c1cc(-c2ccccc2)sc1NC(=O)Cn1cc(CNC(=O)c2cccc(P(=O)(OCC)OCC)c2)nn1 [Compound 401] | > 100 µM
CCOC(=O)c1cc(-c2ccccc2)sc1NC(=O)C1CCCN1C(=O)c1cccc(NS(C)(=O)=O)c1 (stereo not shown) [Compound 109] | > 100 µM
CCOC(=O)c1cc(-c2ccccc2)sc1NC(=O)CNC(=O)c1cccc(S(=O)(=O)N(C)C)c1 [Compound 4] | > 100 µM
CCOC(=O)c1c(NC(=O)COC(=O)c2cccc(S(N)(=O)=O)c2)sc(C)c1C [Compound 54] | > 100 µM
CCOC(=O)c1cc(-c2cccc(F)c2)sc1NC(=O)COC(=O)c1cccc(NS(C)(=O)=O)c1 [Compound 116] | > 100 µM
CCOC(=O)c1cc(-c2ccccc2)sc1NC(=O)COC(=O)c1ccc(Cl)c(S(N)(=O)=O)c1 [Compound 74] | > 100 µM
CCOC(=O)c1cc(-c2ccccc2)sc1NC(=O)CN(C)C(=O)c1cccc(NS(C)(=O)=O)c1 [Compound 151] | > 100 µM
CCOC(=O)c1cc(-c2ccccc2)sc1NC(=O)[C@H]1CCN(C(=O)c2cccc(NS(C)(=O)=O)c2)C1 [Compound 156] | ≤ 25 µM
CCOC(=O)c1cc(-c2ccccc2)sc1NC(=O)COC(=O)c1ccccc1 [Compound 5] | > 100 µM
CCOC(=O)c1cc(-c2ccccc2)sc1NC(=O)CNC(=O)c1cccc(S(=O)(=O)N2CCCCC2)c1 [Compound 36] | > 100 µM
CCOC(=O)c1cc(-c2ccccc2)sc1NC(=O)CN1CCN(C(=O)Cc2cccc(NS(C)(=O)=O)c2)CC1 [Compound 334] | > 100 µM
CCOC(=O)c1cc(-c2ccc(OC(F)(F)F)cc2)sc1NC(=O)COC(=O)c1cccc(S(N)(=O)=O)c1 [Compound 73] | > 100 µM
